Measurements: ChEMBL document CHEMBL1152560, “Substituted 2-arylbenzothiazoles as kinase inhibitors: hit-to-lead optimization” (Bioorg Med Chem, 2009)

What was measured:
[1] = target: Casein kinase I isoform alpha (Homo sapiens) (UniProt P48729); experiment: Residual activity of CK1alpha1 at 10 uM by microplate scintillation counting
[2] = target: SRSF protein kinase 1 (Homo sapiens) (UniProt Q96SB4); experiment: Residual activity of SRPK1 at 10 uM by microplate scintillation counting
[3] = target: Insulin receptor-related protein (Homo sapiens) (UniProt P14616); experiment: Residual activity of INSRR at 10 uM by microplate scintillation counting
[4] = target: T1, Serine/threonine-protein kinase NLK (Homo sapiens) (UniProt Q9UBE8); experiment: Residual activity of NLK at 1 uM by microplate scintillation counting
T1 sequence (whole entry): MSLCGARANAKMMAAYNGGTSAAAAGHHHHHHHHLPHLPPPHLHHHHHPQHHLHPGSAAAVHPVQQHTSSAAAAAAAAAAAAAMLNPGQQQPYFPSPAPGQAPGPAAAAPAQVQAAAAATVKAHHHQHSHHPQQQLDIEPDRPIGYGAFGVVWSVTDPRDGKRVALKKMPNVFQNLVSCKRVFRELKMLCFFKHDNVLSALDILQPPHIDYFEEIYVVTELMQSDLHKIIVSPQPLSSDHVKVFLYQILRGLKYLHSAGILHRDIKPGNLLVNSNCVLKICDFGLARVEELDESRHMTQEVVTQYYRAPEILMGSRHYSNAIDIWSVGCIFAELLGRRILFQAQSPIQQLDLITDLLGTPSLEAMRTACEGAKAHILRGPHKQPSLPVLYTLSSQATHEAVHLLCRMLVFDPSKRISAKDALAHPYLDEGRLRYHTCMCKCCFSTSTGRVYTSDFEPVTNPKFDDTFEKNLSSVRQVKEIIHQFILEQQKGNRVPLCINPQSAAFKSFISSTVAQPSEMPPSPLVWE

[5] = target: Serine/threonine-protein kinase PAK 2 (Homo sapiens) (UniProt Q13177); experiment: Residual activity of PAK2 at 0.1 uM by microplate scintillation counting
[6] = target: 3-phosphoinositide-dependent protein kinase 1 (Homo sapiens) (UniProt O15530); experiment: Residual activity of PDK1 at 0.1 uM by microplate scintillation counting
[7] = target: CDK9/cyclin T1 (Homo sapiens) (UniProt O60563+P50750); experiment: Residual activity of CDK9/Cyclin T at 10 uM by microplate scintillation counting; type: protein-complex assay
[8] = target: Mitogen-activated protein kinase 11 (Homo sapiens) (UniProt Q15759); experiment: Residual activity of p38beta at 1 uM by microplate scintillation counting
[9] = target: Cyclin-dependent kinase 7/ cyclin H (Homo sapiens) (UniProt P51946+P50613); experiment: Residual activity of CDK7/CyclinH/MAT1 at 1 uM by microplate scintillation counting; type: protein-complex assay
[10] = target: T2, Tyrosine-protein kinase ZAP-70 (Homo sapiens) (UniProt P43403); experiment: Residual activity of ZAP70 at 1 uM by microplate scintillation counting
T2 sequence (whole entry): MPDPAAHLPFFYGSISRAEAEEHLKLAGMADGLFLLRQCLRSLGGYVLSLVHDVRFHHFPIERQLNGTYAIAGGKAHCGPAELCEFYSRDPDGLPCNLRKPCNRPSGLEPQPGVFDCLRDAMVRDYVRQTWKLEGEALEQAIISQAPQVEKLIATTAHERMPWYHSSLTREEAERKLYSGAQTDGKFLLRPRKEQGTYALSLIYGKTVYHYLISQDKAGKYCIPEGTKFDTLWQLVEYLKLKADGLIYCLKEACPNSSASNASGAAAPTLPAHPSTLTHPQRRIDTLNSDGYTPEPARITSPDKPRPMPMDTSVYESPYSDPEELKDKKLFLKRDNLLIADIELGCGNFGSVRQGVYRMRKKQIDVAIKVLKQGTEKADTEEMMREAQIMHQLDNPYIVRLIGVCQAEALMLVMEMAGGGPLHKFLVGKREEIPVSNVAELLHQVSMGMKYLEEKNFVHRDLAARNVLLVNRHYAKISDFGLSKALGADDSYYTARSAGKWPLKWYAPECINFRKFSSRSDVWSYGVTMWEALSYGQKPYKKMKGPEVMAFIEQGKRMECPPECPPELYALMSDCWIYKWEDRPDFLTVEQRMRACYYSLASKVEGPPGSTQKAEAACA

[11] = target: High affinity nerve growth factor receptor (Homo sapiens) (UniProt P04629); experiment: Residual activity of TRK-A at 0.1 uM by microplate scintillation counting
[12] = target: Protein-tyrosine kinase 6 (Homo sapiens) (UniProt Q13882); experiment: Residual activity of BRK at 10 uM by microplate scintillation counting
[13] = target: G protein-coupled receptor kinase 5 (Homo sapiens) (UniProt P34947); experiment: Residual activity of GRK5 at 10 uM by microplate scintillation counting
[14] = target: Cyclin-dependent kinase 16 (Homo sapiens) (UniProt Q00536); experiment: Residual activity of PCTAIRE1 at 0.1 uM by microplate scintillation counting
[15] = target: Tyrosine-protein kinase Blk (Homo sapiens) (UniProt P51451); experiment: Residual activity of BLK at 1 uM by microplate scintillation counting
[16] = target: T3, Serine/threonine-protein kinase VRK1 (Homo sapiens) (UniProt Q99986); experiment: Residual activity of VRK1 at 0.1 uM by microplate scintillation counting
T3 sequence (whole entry): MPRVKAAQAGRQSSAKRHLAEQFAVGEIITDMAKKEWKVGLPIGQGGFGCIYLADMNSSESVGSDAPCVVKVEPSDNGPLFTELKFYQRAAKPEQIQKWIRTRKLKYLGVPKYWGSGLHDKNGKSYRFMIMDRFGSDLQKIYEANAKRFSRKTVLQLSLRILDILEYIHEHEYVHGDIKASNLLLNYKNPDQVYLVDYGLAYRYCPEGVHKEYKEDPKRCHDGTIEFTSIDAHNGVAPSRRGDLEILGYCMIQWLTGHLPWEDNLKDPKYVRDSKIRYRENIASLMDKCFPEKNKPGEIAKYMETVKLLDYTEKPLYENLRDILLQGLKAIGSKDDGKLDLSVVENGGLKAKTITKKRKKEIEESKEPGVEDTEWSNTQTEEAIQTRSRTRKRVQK

Protein-tyrosine kinase 6 (Homo sapiens), sequence (Q13882 whole entry, looked up): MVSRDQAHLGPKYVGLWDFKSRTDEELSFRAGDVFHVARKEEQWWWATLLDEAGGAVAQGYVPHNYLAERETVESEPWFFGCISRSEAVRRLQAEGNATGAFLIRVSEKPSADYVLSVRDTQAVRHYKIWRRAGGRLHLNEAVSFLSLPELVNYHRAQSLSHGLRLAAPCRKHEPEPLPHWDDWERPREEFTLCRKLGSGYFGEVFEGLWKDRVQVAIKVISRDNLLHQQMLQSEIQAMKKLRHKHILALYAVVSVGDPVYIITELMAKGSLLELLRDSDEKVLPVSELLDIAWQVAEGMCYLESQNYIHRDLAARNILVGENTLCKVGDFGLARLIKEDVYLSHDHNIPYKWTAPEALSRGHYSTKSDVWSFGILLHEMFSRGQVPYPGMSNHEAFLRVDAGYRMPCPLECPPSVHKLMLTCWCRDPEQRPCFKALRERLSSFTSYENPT
Casein kinase I isoform alpha (Homo sapiens), sequence (P48729 2-337 limits assumed): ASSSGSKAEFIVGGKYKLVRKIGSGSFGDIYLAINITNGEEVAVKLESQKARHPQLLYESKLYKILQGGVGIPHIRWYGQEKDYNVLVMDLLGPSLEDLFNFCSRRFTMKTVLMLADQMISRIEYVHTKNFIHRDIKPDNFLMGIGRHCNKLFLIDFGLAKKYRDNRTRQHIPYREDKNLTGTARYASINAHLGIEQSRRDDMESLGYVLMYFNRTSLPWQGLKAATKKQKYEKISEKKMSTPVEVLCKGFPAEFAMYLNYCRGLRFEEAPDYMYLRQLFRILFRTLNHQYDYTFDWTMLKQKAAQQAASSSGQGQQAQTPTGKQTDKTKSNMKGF
Tyrosine-protein kinase Blk (Homo sapiens), sequence (P51451 2-505 limits assumed): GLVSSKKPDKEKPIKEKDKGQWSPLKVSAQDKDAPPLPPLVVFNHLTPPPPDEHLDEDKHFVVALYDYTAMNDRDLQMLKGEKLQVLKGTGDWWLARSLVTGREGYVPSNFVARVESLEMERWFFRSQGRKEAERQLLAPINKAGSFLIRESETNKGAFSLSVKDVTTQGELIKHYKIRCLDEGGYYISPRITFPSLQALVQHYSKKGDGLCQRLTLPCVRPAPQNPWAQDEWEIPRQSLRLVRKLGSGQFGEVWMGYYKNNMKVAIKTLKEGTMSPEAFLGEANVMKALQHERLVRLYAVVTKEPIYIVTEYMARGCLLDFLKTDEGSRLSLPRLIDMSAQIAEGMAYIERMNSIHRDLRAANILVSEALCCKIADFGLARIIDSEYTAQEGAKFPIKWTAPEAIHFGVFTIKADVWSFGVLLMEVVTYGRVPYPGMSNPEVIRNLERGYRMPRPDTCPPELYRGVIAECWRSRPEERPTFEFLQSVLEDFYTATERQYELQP
Insulin receptor-related protein (Homo sapiens), sequence (P14616 27-742 limits assumed): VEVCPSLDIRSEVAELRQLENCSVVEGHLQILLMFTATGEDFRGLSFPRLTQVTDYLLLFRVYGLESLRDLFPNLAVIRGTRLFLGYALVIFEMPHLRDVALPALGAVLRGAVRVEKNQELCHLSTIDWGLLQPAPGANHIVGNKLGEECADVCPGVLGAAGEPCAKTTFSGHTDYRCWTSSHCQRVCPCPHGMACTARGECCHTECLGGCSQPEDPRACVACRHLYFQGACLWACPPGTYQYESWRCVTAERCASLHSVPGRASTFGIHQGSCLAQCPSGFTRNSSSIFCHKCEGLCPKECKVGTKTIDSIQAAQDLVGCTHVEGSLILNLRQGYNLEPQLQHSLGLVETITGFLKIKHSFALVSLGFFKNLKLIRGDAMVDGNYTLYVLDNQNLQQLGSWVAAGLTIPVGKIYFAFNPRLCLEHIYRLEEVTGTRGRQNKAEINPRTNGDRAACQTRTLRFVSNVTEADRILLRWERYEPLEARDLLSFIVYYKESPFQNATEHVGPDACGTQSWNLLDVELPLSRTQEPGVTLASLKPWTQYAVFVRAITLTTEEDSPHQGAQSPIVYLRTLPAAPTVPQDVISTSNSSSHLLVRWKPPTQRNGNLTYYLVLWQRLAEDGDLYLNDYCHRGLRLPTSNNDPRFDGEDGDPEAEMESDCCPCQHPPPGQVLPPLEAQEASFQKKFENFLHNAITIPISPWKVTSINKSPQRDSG
Insulin receptor-related protein (Homo sapiens), sequence (P14616 747-1297 limits assumed): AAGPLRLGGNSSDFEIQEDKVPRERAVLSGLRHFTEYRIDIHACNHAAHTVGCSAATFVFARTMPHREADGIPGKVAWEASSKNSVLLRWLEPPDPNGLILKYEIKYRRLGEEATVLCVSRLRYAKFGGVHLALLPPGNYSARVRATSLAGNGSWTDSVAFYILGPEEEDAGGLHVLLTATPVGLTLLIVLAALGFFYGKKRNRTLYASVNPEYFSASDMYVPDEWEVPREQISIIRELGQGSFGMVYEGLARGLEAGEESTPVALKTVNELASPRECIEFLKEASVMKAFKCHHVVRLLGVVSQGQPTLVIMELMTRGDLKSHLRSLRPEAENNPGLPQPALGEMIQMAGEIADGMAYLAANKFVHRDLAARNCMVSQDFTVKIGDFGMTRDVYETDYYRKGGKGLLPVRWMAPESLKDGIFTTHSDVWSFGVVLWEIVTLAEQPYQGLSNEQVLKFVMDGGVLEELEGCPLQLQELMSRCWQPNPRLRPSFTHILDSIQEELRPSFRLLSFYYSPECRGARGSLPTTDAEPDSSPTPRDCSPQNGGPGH
High affinity nerve growth factor receptor (Homo sapiens), sequence (P04629 33-796 limits assumed): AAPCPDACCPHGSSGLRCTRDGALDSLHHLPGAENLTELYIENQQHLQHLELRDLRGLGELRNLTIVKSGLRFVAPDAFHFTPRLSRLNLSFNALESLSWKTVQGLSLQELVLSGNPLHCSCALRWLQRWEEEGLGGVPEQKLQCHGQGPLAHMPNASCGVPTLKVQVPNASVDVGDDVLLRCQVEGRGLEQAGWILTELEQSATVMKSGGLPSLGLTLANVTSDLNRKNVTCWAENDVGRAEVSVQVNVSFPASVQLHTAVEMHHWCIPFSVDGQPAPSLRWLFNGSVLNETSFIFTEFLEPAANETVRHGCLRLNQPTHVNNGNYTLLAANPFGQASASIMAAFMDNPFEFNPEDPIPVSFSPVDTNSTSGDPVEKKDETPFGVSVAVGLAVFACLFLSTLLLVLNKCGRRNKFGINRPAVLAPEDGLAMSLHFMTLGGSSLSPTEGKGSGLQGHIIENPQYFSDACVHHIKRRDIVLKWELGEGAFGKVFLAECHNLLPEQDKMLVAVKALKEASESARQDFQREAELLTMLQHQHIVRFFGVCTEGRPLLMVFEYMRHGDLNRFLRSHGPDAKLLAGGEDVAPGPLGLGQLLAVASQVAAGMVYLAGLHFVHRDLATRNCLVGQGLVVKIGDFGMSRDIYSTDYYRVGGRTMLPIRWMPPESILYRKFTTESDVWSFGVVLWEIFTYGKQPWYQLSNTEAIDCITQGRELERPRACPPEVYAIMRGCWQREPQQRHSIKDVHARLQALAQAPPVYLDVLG
Cyclin-dependent kinase 16 (Homo sapiens), sequence (Q00536 whole entry): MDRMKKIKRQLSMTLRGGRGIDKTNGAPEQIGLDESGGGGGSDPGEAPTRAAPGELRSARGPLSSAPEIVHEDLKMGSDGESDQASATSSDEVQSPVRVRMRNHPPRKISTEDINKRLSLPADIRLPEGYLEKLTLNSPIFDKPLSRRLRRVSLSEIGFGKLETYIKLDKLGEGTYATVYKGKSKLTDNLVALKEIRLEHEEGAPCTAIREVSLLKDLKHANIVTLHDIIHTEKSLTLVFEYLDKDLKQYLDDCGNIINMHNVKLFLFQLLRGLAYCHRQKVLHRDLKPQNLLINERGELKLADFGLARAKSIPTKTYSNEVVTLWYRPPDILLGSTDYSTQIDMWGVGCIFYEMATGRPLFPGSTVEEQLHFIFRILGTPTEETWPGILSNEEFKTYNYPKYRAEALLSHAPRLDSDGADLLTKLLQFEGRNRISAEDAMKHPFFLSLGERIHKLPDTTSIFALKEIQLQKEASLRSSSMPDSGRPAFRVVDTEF
3-phosphoinositide-dependent protein kinase 1 (Homo sapiens), sequence (O15530 whole entry, looked up): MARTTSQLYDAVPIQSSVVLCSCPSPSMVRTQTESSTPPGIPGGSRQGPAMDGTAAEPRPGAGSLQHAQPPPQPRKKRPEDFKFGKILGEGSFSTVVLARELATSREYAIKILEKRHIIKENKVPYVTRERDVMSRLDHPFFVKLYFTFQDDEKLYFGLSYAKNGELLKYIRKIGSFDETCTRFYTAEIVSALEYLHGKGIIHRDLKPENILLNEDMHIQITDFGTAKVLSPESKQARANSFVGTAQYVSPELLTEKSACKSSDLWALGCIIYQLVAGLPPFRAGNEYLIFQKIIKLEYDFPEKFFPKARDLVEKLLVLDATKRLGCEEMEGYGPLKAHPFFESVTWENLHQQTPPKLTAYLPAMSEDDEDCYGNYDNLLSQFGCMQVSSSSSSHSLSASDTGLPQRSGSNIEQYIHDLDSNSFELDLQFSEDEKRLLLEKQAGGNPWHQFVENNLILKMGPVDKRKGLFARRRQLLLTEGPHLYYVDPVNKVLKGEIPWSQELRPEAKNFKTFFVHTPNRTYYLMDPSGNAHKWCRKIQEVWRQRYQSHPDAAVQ
Mitogen-activated protein kinase 11 (Homo sapiens), sequence (Q15759 whole entry): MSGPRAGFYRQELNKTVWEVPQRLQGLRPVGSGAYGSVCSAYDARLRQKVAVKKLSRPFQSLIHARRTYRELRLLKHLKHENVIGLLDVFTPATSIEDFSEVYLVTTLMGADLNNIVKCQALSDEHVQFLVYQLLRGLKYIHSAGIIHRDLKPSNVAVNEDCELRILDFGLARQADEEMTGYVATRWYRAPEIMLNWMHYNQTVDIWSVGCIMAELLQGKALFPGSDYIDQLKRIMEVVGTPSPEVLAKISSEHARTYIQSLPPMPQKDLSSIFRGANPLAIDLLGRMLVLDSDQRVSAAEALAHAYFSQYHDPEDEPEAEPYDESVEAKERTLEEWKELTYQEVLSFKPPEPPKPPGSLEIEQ

Structure (SMILES) | residual activity [1] [%] | residual activity [2] [%] | residual activity [3] [%] | residual activity [4] [%] | residual activity [5] [%] | residual activity [6] [%] | residual activity [7] [%] | residual activity [8] [%] | residual activity [9] [%] | residual activity [10] [%] | residual activity [11] [%] | residual activity [12] [%] | residual activity [13] [%] | residual activity [14] [%] | residual activity [15] [%] | residual activity [16] [%]
COc1cc2c(Oc3ccc(-c4nc5ccccc5s4)cc3)ncnc2cc1OCCCN1CCN(C)CC1 | 155 | 98 | 51 | 113 | 111 | 95 | 109 | 126 | 94 | 116 | 104 | 1 | 76 | 78 | 63 | 97
COc1cc2c(Oc3ccc(-c4nc5ccccc5s4)cc3F)ncnc2cc1OCCCN1CCN(C)CC1 | 144 | 64 | 7 | 113 | 97 | 97 | 107 | 129 | 87 | 120 | 88 | 0 | 84 | 76 | 58 | 89
COc1cc2c(Oc3ccc(-c4nc5ccccc5s4)cc3)ncnc2cc1OCCCN1CCCC1 | 139 | 107 | 43 | 96 | 93 | 95 | 107 | 125 | 77 | 145 | 83 | 0 | 81 | 83 | 64 | 93
